Results on ten molecules are retold here after PubChem BioAssay (NCI).

What all share (assay): NCI-60 cell line screen, 48 h
In test [1] the test system is ACHN renal.
The test system of test [2] is NCI-H522 lung.
Test [3] concerns COLO 205 colon.
Test [4] deals with SNB-75 CNS.
The subject of test [5] is HOP-62 NSCLC.
In test [6] the test system is UACC-257 melanoma.
Test [7] deals with HCT-15 colon.
The subject of test [8] is CCRF-CEM leukemia.
Test [9] relates to 786-0 renal.
Test [10] relates to U251 CNS.

The structures appear in SMILES notation.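 Where inhibition never reached the appropriate level, the endpoint shown equals the highest concentration tested. Otherwise, values were interpolated linearly from a five-concentration, 48-hour dose response in 96-well plates. Abbreviation: GI50, concentration required for 50% inhibition of growth. TGI marks complete inhibition of growth.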

Consider `CN1CCN(c2ccc(NC(=O)c3nc4ccc5[nH]ncc5c4c4c3CCCC4)cc2C(F)(F)F)CC1`, for which the GI50 in test [1] is 0.857 µM; in test [2], 0.856 µM; in [3], 0.84 µM; in test [4], 5.5 µM; in test [5], 0.918 µM; in test [6], 0.902 µM. Also, the GI50 was 0.845 µM in [7], 1.07 µM in [8], 0.841 µM in test [9] and 0.926 µM in test [10]. Moreover, the TGI in test [1] was 1.55 µM; in test [2], 1.88 µM; in test [3] it was 1.68 µM; in test [4], 12.1 µM; in test [5] it was 1.89 µM; in [6] it was 1.88 µM. The TGI stood at 1.78 µM in test [7], 3.33 µM in test [8], 1.52 µM in test [9] and 1.77 µM in [10].
As to `O=[N+]([O-])c1ccc(S(=O)Cc2ccccc2)c([N+](=O)[O-])c1` (centres undefined), the GI50 was 1.62 µM in test [1]; 1.32 µM in test [2]; 1.68 µM in test [3]; 12 µM in test [4]; 11.6 µM in [5]; 1.76 µM in test [6]. Further, the GI50 is 1.85 µM in test [7], 0.739 µM in test [8], 4.91 µM in test [9] and 11.4 µM in [10]. Further, the TGI in test [1] was determined as 3.07 µM; in [2] it was 2.94 µM; in test [3], 3.05 µM; in [4], 25.2 µM; in test [5], 23.8 µM; in test [6], 3.96 µM. Also, the TGI in [7] was found to be 3.88 µM; in test [8], 3 µM; in [9], 17.3 µM; in [10], 24.3 µM.
For `Cc1ccc(-c2cc(-c3ccco3)c(C#N)c(=O)[nH]2)cc1`, the TGI in test [1], in test [2], in test [3], in test [4], in [5] and in [6] was more than 100 µM throughout. For the same molecule, the TGI in test [7], in [8], in [9] and in [10] was more than 100 µM throughout.
For the molecule `C=C1SC(=Nc2c(C)cc(C)cc2C)N(C(=O)c2sc3ccccc3c2Cl)C12CCCCC2`, the GI50 in [1] is more than 100 µM; in test [2], 28.6 µM; in [3], more than 100 µM; in test [4], more than 100 µM; in test [5] it was more than 100 µM; in [6], more than 100 µM. In addition, the GI50 in test [7] was more than 100 µM; in [8], 62.4 µM; in test [9] it was more than 100 µM; in test [10], more than 100 µM. Further, the TGI in [1], in [2], in test [3], in test [4], in test [5] and in [6] was more than 100 µM throughout. In addition, the TGI in test [7], in test [8], in [9] and in test [10] was more than 100 µM in each case.
For the molecule `C1C[OH+]CC[OH+]CCNCC[OH+]CC[OH+]CCN1.[Cl-].[Pt+4]`, the GI50 is more than 100 µM in test [1]; 26.3 µM in test [2]; more than 100 µM in [3]; more than 100 µM in test [4]; more than 100 µM in [5]; more than 100 µM in test [6]. Moreover, the GI50 in test [8] is 30.1 µM; in test [9], more than 100 µM; in test [10], more than 100 µM. Moreover, the TGI in test [1], in test [2], in [3], in test [4], in test [5] and in test [6] was more than 100 µM throughout. Moreover, the TGI in test [8], in test [9] and in test [10] was more than 100 µM throughout.
With `COc1cc(/C=C\c2ccc(C)cc2)cc(OC)c1OC`, the TGI is more than 100 µM in test [1]; 0.013 µM in test [2]; 0.144 µM in test [3]; 34.1 µM in test [5]; more than 76.6 µM in test [6]; less than 0.044 µM in [8]. In addition, the TGI amounted to 25.2 µM in [9] and 0.348 µM in test [10]. For the same molecule, the values for the GI50 in test [4] and in test [6] were 0.0149 µM and less than 0.021 µM, respectively.
`CC1CC2CC(=O)CC3(C1)C2CCCN3CCCO` (centres undefined): the TGI in test [1], in test [2], in test [3], in test [4], in [5] and in [6] was more than 100 µM in each case. Besides, the TGI in test [8], in [9] and in [10] was more than 100 µM each time.
As to `CC(=O)N[C@@H]1C(O)CN2C(=O)C(=O)O[C@H](C(O)CO)[C@@H]12` (some centres undefined), the TGI in test [1], in [2], in [3], in [4], in [5] and in test [6] was more than 100 µM throughout. For the same molecule, the TGI in [8], in [9] and in [10] was more than 100 µM throughout.
Take `CCc1cccc(C(C)C)c1NC(=O)C(=O)CC(=O)c1c(C)n([O-])c2ccccc2[n+]1=O`: the TGI in test [1], in test [2], in [3], in [4], in test [5] and in [7] was more than 100 µM each time. Further, the TGI in test [8], in [9] and in test [10] was more than 100 µM in each case.
With `CC(C)C1(O)C(c2ccccc2)=C(c2ccccc2)C(c2ccccc2)=C1c1ccccc1`, the TGI in test [2] was found to be 23.9 µM; in test [3], 21.7 µM; in test [4], 58.5 µM; in test [5] it was 30.1 µM; in [6] it was 26.2 µM; in [7], 46.8 µM. Besides, the TGI in test [8] was more than 100 µM; in [9], 74.4 µM; in test [10], 18.7 µM.
